Patent publication US9481669B2, “Pladienolide pyridine compounds and methods of use” (Eisai R&D Management Co., Ltd., priority 2014, dated 2016)

Assays:
[1] = system: WiDr-R cells (colon cancer cells, SF3B1 R1074H mutation); assay: Cell viability assay (CellTiter-Glo, 72 hr), WiDr-R counter-screen; type: cell-based
Experimental: (§1) Cells (WiDr and Panc05.04 obtained from ATCC) were seeded in 96-well plates, with 2000 cells/100 μL/well, and incubated overnight. Spent media was removed, and fresh media containing 9 different concentrations of compound (100 μL/well) were added, with DMSO concentration from compound stock solution adjusted to be 0.1%. Each compound treatment was done in duplicate or triplicate at each concentration.
(§2) Another plate with cells seeded was dedicated as a time zero (Tz) plate, to which was added 0.1% DMSO in media (100 μL/well) followed by CellTiter-Glo® reagent (Promega Corporation, Madison, Wis.) (50 μL/well) for ATP measurement as a surrogate of cell viability. Average value from measurement of multiple wells of this plate is used as Tz.
(§3) Compound-treated plates were incubated for 72 hr at 37° C. Then, CellTiter-Glo® reagent (50 μL/well) was added and ATP was measured. Average value from measurement of the duplicate or triplicate compound-treated wells is used as Ti, and seeded plates with medium having 0.1% DMSO without compound is used as control growth (C).
(§4) Percentage growth inhibition/Percentage viability was calculated as: [(Ti−Tz)/(C−Tz)]×100 for concentrations for which Ti>/=Tz [(Ti−Tz)/Tz]×100 for concentrations for which Ti<Tz. *time zero (Tz), control growth (C), and test growth in the presence of compound (Ti) Percentage growth inhibition/Percentage viability are plotted versus compound concentration to determine Emax.
(§5) Growth inhibition of 50% (GI50) was calculated from [(Ti−Tz)/(C−Tz)]×100=50, which is the drug concentration resulting in a 50% reduction in the net increase of ATP in control growth (C) during the compound treatment.
(§6) The counter-screening of compounds in this viability assay with a “resistant” WiDr-R cell line may indicate whether these compounds have off-target effect(s).

[2] = system: WiDr cells (colon cancer cells, wildtype SF3B1); assay: Cell viability assay (CellTiter-Glo, 72 hr), WiDr; type: cell-based; details: Homo sapiens
Experimental: as §1, §2, §3, §4, §5, §6

[3] = pH stability measurement (UPLC, 0.1 N HCl); type: physicochemical; details: 0.1 N HCl, pH 1, 24 hours
Experimental: Compounds were provided in 96-well plates and tested in triplicate. Four microliters of a 10 mM stock solution of compound in DMSO were distributed into each of three wells. The plate was stored at or below −20° C. until the day of the analysis. Methanol (HPLC grade) and 0.1 N HCl (EMD catalog HX0603A-6) were used for dilutions. Acetonitrile (HPLC grade), water (Milli-Q filtered), trifluoroacetic acid (spectral grade) and 0.2M phosphate buffer (Wako, catalog no. 163-14471) were used to prepare the mobile phase for the two analyses.
Stability data was obtained using a Waters Acquity UPLC equipped with a UV detector (Waters TUV) and single quadrupole MS detector (Waters SQD). The 96-well plate containing the compound(s) of interest was(were) removed from the freezer and allowed to warm to room temperature for one hour. The UPLC was primed, equilibrated and the system performance was verified by injecting a standard. After 1 hour, each of the three wells was diluted with 266 μL 0.1 N HCl to give pH=1. The plate was covered and placed on a shaker (Eppindorf Thermomixer R) for 45 minutes at 600 rpm. The plate was removed from the shaker, and the contents of each well were filtered through a filtration plate (Millipore catalog no. MSSLBPC50) by vacuum and injected into the UPLC. After approximately 24 hours, the contents of the wells were re-injected into the UPLC.
Stability in the various buffers was measured by comparing the peak area- % of the analyte in methanol versus the peak area- % of the analyte at the same retention time in 0.1 N HCl buffer in the 24 hr time point injection.

[4] = system: splicing of Ad2 pre-mRNA in HeLa nuclear extract; assay: In vitro splicing (IVS) biochemical assay; details: 30° C.
Experimental: Biotin-labeled pre-mRNA of an adenovirus type 2 construct with a deletion of intervening sequence (Ad2) (Berg, M. G., et al. 2012 Mol. Cell Bio., 32(7):1271-83) was prepared by in vitro transcription. The Ad2 construct containing Exon 1 (41 nucleotides), Intron (231 nucleotides), and Exon 2 (72 nucleotides) was generated by gene synthesis and cloned into the EcoRI and XbaI sites of pGEM®-3Z vector (Promega) by Genewiz® (South Plainfield, N.J.). The plasmid was then linearized by XbaI digestion and purified. In vitro transcription and purification of transcribed pre-mRNA were performed using the MEGAscript® T7 transcription kit (Invitrogen™, Life Technologies™, Grand Island, N.Y.) and MEGAclear™ transcription clean-up kit (Invitrogen™, Life Technologies™, Grand Island, N.Y.), respectively, following the manufacturer's instructions. The ratio of biotin-16-UTP (Roche Diagnostics Corporation, Indianapolis, Ind.) to cold UTP was 1:13 to incorporate approximately two biotin molecules per spliced Ad2 mRNA.
In vitro splicing assay was performed at 30° C. in 25 μL reaction mixtures containing 95 μg HeLa nuclear extract (Promega Corporation, Madison, Wis.), 47 nM Ad2 pre-mRNA, 25 U RNasin RNase inhibitor (Promega Corporation, Madison, Wis.), 1×SP buffer (0.5 mM ATP, 20 mM creatine phosphate, 1.6 mM MgCl2), and compounds in DMSO (with 1% final concentration of DMSO). After […] of incubation, the reaction was stopped by addition of 18 μL of 5M NaCl, and the mixtures were incubated with 10 μL of M-280 streptavidin-coated magnetic beads (Invitrogen™, Life Technologies™, Grand Island, N.Y.) for 30 min at room temperature to capture Ad2 pre- and spliced mRNA. The beads were washed twice with 100 uL buffer containing 10 mM Tris pH=7.5, 1 mM EDTA and 2M NaCl, and then incubated in RNA gel loading buffer containing 95% formamide at 70° C. for 10 min to elute the RNAs. Ad2 RNAs were resolved by 6% TBE-UREA gel, transferred to a nylon membrane, UV cross-linked, and probed with an IRDye® labeled streptavidin (LI-COR, Lincoln, Nebr.). The amount of spliced RNA was quantified by measuring the band fluorescent intensity using LI-COR Image Studio software.
The in vitro splicing (IVS) assay described above is a biochemical assay that monitors inhibition of the splicing of an exemplary pre-mRNA into an mRNA.

Row | Compound | GI50 [1] | GI50 [2] | % parent remaining (pH = 1, 24 hours) [3] | IC50 [4]
1 | C/C(=C\C=C\[C@@H](C)c1ccccn1)[C@H]1OC(=O)C[C@H](O)CC[C@@](C)(O)[C@@H](OC(=O)N2CCN(C3CCCCCC3)CC2)/C=C/[C@@H]1C [Compound 1, (2S,3S,6S,7R,10R,E)-7,10-dihydroxy-3,7-dimethyl-12-oxo-2-((R,2E,4E)-6-(pyridin-2-yl)hepta-2,4-dien-2-yl)oxacyclododec-4-en-6-yl 4-cycloheptylpiperazine-1-carboxylate] | > 1 µM | 0.0158 µM | 91% | 0.188 µM
2 | C/C(=C\C=C\[C@@H](C)c1ccccn1)[C@H]1OC(=O)C[C@H](O)CC[C@@](C)(O)[C@@H](OC(=O)N2CCN(C)CC2)/C=C/[C@@H]1C [Compound 2, (2S,3 S,6S,7R,10R,E)-7,10-dihydroxy-3,7-dimethyl-12-oxo-2-((R,2E,4E)-6-(pyridin-2-yl)hepta-2,4-dien-2-yl)oxacyclododec-4-en-6-yl 4-methylpiperazine-1-carboxylate] | > 1 µM | 0.0318 µM | 96% | 1.33 µM
3 | C/C(=C\C=C\[C@@H](C)c1ccccn1)[C@H]1OC(=O)C[C@H](O)CC[C@@](C)(O)[C@@H](OC(=O)N2CCC(N3CCCCCC3)CC2)/C=C/[C@@H]1C [Compound 3, (2S,3S,6S,7R,10R,E)-7,10-dihydroxy-3,7-dimethyl-12-oxo-2-((R,2E,4E)-6-(pyridin-2-yl)hepta-2,4-dien-2-yl)oxacyclododec-4-en-6-yl 4-(azepan-1-yl)piperidine-1-carboxylate] | > 1 µM | 0.0263 µM | 98% | 0.77 µM
4 | C/C(=C\C=C\[C@@H](C)c1ccccn1)[C@H]1OC(=O)C[C@H](O)CC[C@@](C)(O)[C@@H](OC(=O)N2CCC(N3CCCCC3)CC2)/C=C/[C@@H]1C [Compound 4, (2S,3 S,6S,7R,10R,E)-7,10-dihydroxy-3,7-dimethyl-12-oxo-2-((R,2E,4E)-6-(pyridin-2-yl)hepta-2,4-dien-2-yl)oxacyclododec-4-en-6-yl[1,4′-bipiperidine]-1′-carboxylate] | > 1 µM | 0.013 µM | 99% | 0.089 µM
